In US20210290676A1, “IMPROVING THE EFFICACY AND SAFETY OF ADOPTIVE CELLULAR THERAPIES” (University of Southern California, priority 2018, published 2021):

Assays:
Type in all cases: cell-based, human
[1] = system: Pgp+ (DiOC2(3)-dye effluxing) T cells; assay: DiOC2(3) dye efflux flow cytometry of inhibitor-treated T cells; conditions: for p2: pgp+ from Live cells: treatment for 13 days, IL2 + CD3 and CD28 antibodies
Protocol: (§1) The use of P-glycoprotein (Pgp)-mediated efflux of DiOC2(3) to isolate stem like T cells for adoptive cellular therapy has been described in application no. […] In the following examples, DiOC2(3) staining was used to study the effect of different inhibitors on generation of stem like T cells.
(§2) DAY 0: Blood was obtained from unidentified donor. After RBC lysis, PBMC were collected using Ficoll-Hypaque separation. […] T cells were cultured in three different conditions: • 1. XVIVO 15 medium (Lonza) with IL2 50 IU/ml, CD3 antibody (30 ng/ml) and CD28 antibody (30 ng/ml). • 2. XVIVO 15 medium (Lonza) with CD3 antibody (30 ng/ml) and CD28 antibody (30 ng/ml). • 3. XVIVO 15 medium (Lonza) with IL2 50 IU/ml DAY 1: Cells were plated in a 6-well plate at a density of 1 million cells in 2 ml/of media (as described above) and treated with different inhibitors
(§3) The cell growth medium was changed in 6-well plates and fresh drugs were added at same concentration for one more week.
(§4) […] (DAY 11): Culture medium was changed and fresh drugs were added in 6-well plates.
(§5) Subsequently, cells were washed with RPMI medium and dye was effluxed at 37° C. for 90 min. Cells were washed with […], stained with CD62L-APC (5 μl/100 μl/sample) at 4° C. for 1 h, washed twice with PBS+1% FBS and analyzed on flow cytometer to check if these drugs treatment leads to increase in Pgp+/CD62L positive population.
(§6) Day 0: Blood was obtained from unidentified donor. After RBC lysis, PBMC were collected using Ficoll-Hypaque separation. 200 million T cells were isolated from PBMCs using CD3 microbeads. T cells were cultured overnight in XVIVO 15 medium (Lonza) with IL2 (50 IU/ml), 30 ng/ml of CD3 and CD28 antibodies
(§7) Day 1: Cells were plated in 24-well plates at a density of 0.3 million cells/ml in each well and treated with different drugs.
(§8) On day 7, culture medium was replaced with fresh medium with fresh drugs.
(§9) On day 13, culture medium was replaced with fresh medium and fresh drugs. Half of the cells were transferred to 6-well plates.
(§10) Day 14: An aliquot of cells with all the treatments listed above (for 13 days) was used to stain the cells with DiOC2(3) (60 ng/ml in RPMI medium) at 4° C. for 40 min, washed with RPMI medium, DiOC2(3) dye was effluxed at 37° C. for 90 min, washed with PBS+1% FBS, stained with CD62L-APC antibody. CD62L is a marker for resting T cells. (5 μl/100 μl/sample) at 4° C. for 1 h, washed twice with PBS+1% FBS and analyzed on flow cytometer to check if these drugs are affecting the dye-effluxing or Pgp+ (i.e., DiOC2(3)-dull) T-cell population.

[2] = system: Pgp+ (DiOC2(3)-dye effluxing cells) and CD62L+ T cells; assay: DiOC2(3) dye efflux plus CD62L-APC staining, flow cytometry of inhibitor-treated T cells; conditions: for p5: double +ve pgp+ and CD62L-APC+ from Live cells: treatment for 13 days, IL2 + CD3 and CD28 antibodies
Protocol: as §1, §2, §3, §4, §5, §6, §7, §8, §9, §10

[3] = system: CD8+CD45RA+CCR7+CD62L+ T cells; assay: Flow cytometry for CD8, CD45RA, CCR7 and CD62L on inhibitor-treated T cells; conditions: for % of CD62L+CCR7+ double positive cells out of CD45RA+ cells in CD8+ T cell population: 13 days of treatment; for GATE P4 CD8(PerCP)+, CD45RA(FITC)+, CCR7 (PE)+, CD62L(APC): cells cultured for 14 days
Protocol: as §2
(§11) A second aliquot of the cells cultured for 13 days with all the treatments listed above (1-21) was washed with PBS+1% FBS, stained with CD8-PerCP, CD45RA-FITC, CCR7-PE and CD62L-APC (5% Y/100 μl/sample for each of 4 antibodies) at 4° C. for 1 h, washed twice with PBS+100 FBS and analyzed on flow cytometer to check if these drugs are enriching T stem cells showing surface expression of CD8+CD45RA+CCR7+CD62L+.
as §6, §7, §8, §9
as §11, with “14” for “13”, “above” for “above (1-21)”, “(5 ul/100 ul/sample” for “(5% Y/100 μl/sample”, “PBS+1%” for “PBS+100”, “enriching for” for “enriching”, “T” for “T stem”

[4] = system: CD45RA+CCR7+CD62L+ T cells; assay: Flow cytometry for CD45RA, CCR7 and CD62L on inhibitor-treated T cells (all T cells); conditions: for % of CD62L+CCR7+ double positive cells out of CD45RA+ cells in live T cell population: 13 days treatment; for GATE P6 CD45RA(FITC)+, CCR7 (PE)+, CD62L(APC): cells cultured for 14 days
Protocol: as §2, §11, §6, §7, §8, §9
as §11, with “14” for “13”, “above” for “above (1-21)”, “(5 ul/100 ul/sample” for “(5% Y/100 μl/sample”, “PBS+1%” for “PBS+100”, “enriching for” for “enriching”, “T” for “T stem”

[5] = culture with CD3 antibody, CD28 antibody and IL2, 6 days of treatment, 500 nM
[6] = CD3-CD28-IL2 culture, inhibitor 100 nM
[7] = CD3-CD28-IL2 culture, inhibitor 500 nM
[8] = CD3-CD28-IL2 culture, inhibitor 1 μM
[9] = CD3-CD28 culture, inhibitor 100 nM
[10] = CD3-CD28 culture, inhibitor 500 nM
[11] = CD3-CD28 culture, inhibitor 1 μM
[12] = CD3-IL2 culture, inhibitor 100 nM
[13] = CD3-IL2 culture, inhibitor 500 nM
[14] = CD3-IL2 culture, inhibitor 1 μM

CCCc1cc(C)[nH]c(=O)c1CNC(=O)c1cc(-c2ccnc(N3CCN(C)CC3)c2)cc2c1cnn2C(C)C [GSK343]
% of Pgp+ cells out of live cells ([1]; CD3-CD28-IL2 culture, inhibitor 100 nM, 6 days of treatment): 23.29%
% of Pgp+ cells out of live cells ([1]; CD3-CD28-IL2 culture, inhibitor 100 nM, 13 days of treatment): 27.15%
% of Pgp+ cells out of live cells ([1]; CD3-CD28-IL2 culture, inhibitor 500 nM, 6 days of treatment): 30.62%
% of Pgp+ cells out of live cells ([1]; CD3-CD28-IL2 culture, inhibitor 500 nM, 13 days of treatment): 18.00%
% of Pgp+ cells out of live cells ([1]; CD3-CD28-IL2 culture, inhibitor 1 μM, 6 days of treatment): 28.03%
% of Pgp+ cells out of live cells ([1]; CD3-CD28-IL2 culture, inhibitor 1 μM, 13 days of treatment): 23.42%
% of Pgp+ cells out of live cells ([1]; CD3-CD28 culture, inhibitor 100 nM, 6 days of treatment): 48.43%
% of Pgp+ cells out of live cells ([1]; CD3-CD28 culture, inhibitor 100 nM, 13 days of treatment): 11.66%
% of Pgp+ cells out of live cells ([1]; CD3-CD28 culture, inhibitor 500 nM, 6 days of treatment): 47.09%
% of Pgp+ cells out of live cells ([1]; CD3-CD28 culture, inhibitor 500 nM, 13 days of treatment): 10.34%
% of Pgp+ cells out of live cells ([1]; CD3-CD28 culture, inhibitor 1 μM, 6 days of treatment): 46.26%
% of Pgp+ cells out of live cells ([1]; CD3-CD28 culture, inhibitor 1 μM, 13 days of treatment): 9.43%
% of Pgp+ cells out of live cells ([1]; CD3-IL2 culture, inhibitor 100 nM, 6 days of treatment): 25.49%
% of Pgp+ cells out of live cells ([1]; CD3-IL2 culture, inhibitor 100 nM, 13 days of treatment): 20.31%
% of Pgp+ cells out of live cells ([1]; CD3-IL2 culture, inhibitor 500 nM, 6 days of treatment): 25.21%
% of Pgp+ cells out of live cells ([1]; CD3-IL2 culture, inhibitor 500 nM, 13 days of treatment): 23.54%
% of Pgp+ cells out of live cells ([1]; CD3-IL2 culture, inhibitor 1 μM, 6 days of treatment): 28.31%
% of Pgp+ cells out of live cells ([1]; CD3-IL2 culture, inhibitor 1 μM, 13 days of treatment): 17.50%
percentage of Pgp+ cells [1, 5]: 30.62%
% of Pgp+ CD62L+cells out of live cells ([2]; CD3-CD28-IL2 culture, inhibitor 100 nM, 6 days treatment): 8.57%
% of Pgp+ CD62L+cells out of live cells ([2]; CD3-CD28-IL2 culture, inhibitor 100 nM, 13 days treatment): 7.96%
% of Pgp+ CD62L+cells out of live cells ([2]; CD3-CD28-IL2 culture, inhibitor 500 nM, 6 days treatment): 13.33%
% of Pgp+ CD62L+cells out of live cells ([2]; CD3-CD28-IL2 culture, inhibitor 500 nM, 13 days treatment): 4.79%
% of Pgp+ CD62L+cells out of live cells ([2]; CD3-CD28-IL2 culture, inhibitor 1 μM, 6 days treatment): 12.05%
% of Pgp+ CD62L+cells out of live cells ([2]; CD3-CD28-IL2 culture, inhibitor 1 μM, 13 days treatment): 5.75%
% of Pgp+ CD62L+cells out of live cells ([2]; CD3-CD28 culture, inhibitor 100 nM, 6 days treatment): 23.35%
% of Pgp+ CD62L+cells out of live cells ([2]; CD3-CD28 culture, inhibitor 100 nM, 13 days treatment): 2.50%
% of Pgp+ CD62L+cells out of live cells ([2]; CD3-CD28 culture, inhibitor 500 nM, 6 days treatment): 24.79%
% of Pgp+ CD62L+cells out of live cells ([2]; CD3-CD28 culture, inhibitor 500 nM, 13 days treatment): 2.12%
% of Pgp+ CD62L+cells out of live cells ([2]; CD3-CD28 culture, inhibitor 1 μM, 6 days treatment): 23.41%
% of Pgp+ CD62L+cells out of live cells ([2]; CD3-CD28 culture, inhibitor 1 μM, 13 days treatment): 2.28%
% of Pgp+ CD62L+cells out of live cells ([2]; CD3-IL2 culture, inhibitor 100 nM, 6 days treatment): 8.62%
% of Pgp+ CD62L+cells out of live cells ([2]; CD3-IL2 culture, inhibitor 100 nM, 13 days treatment): 5.24%
% of Pgp+ CD62L+cells out of live cells ([2]; CD3-IL2 culture, inhibitor 500 nM, 6 days treatment): 9.32%
% of Pgp+ CD62L+cells out of live cells ([2]; CD3-IL2 culture, inhibitor 500 nM, 13 days treatment): 6.82%
% of Pgp+ CD62L+cells out of live cells ([2]; CD3-IL2 culture, inhibitor 1 μM, 6 days treatment): 10.99%
% of Pgp+ CD62L+cells out of live cells ([2]; CD3-IL2 culture, inhibitor 1 μM, 13 days treatment): 5.17%
percentage of Pgp+CD62L+ cells [2, 5]: 13.33%
% of CD62L+CCR7+ double positive cells out of CD45RA+ cells in CD8+ T cell population [3, 6]: 82.96%
% of CD62L+CCR7+ double positive cells out of CD45RA+ cells in CD8+ T cell population [3, 7]: 82.42%
% of CD62L+CCR7+ double positive cells out of CD45RA+ cells in CD8+ T cell population [3, 8]: 85.00%
% of CD62L+CCR7+ double positive cells out of CD45RA+ cells in CD8+ T cell population [3, 9]: 85.28%
% of CD62L+CCR7+ double positive cells out of CD45RA+ cells in CD8+ T cell population [3, 10]: 80.34%
% of CD62L+CCR7+ double positive cells out of CD45RA+ cells in CD8+ T cell population [3, 11]: 85.70%
% of CD62L+CCR7+ double positive cells out of CD45RA+ cells in CD8+ T cell population [3, 12]: 73.95%
% of CD62L+CCR7+ double positive cells out of CD45RA+ cells in CD8+ T cell population [3, 13]: 77.29%
% of CD62L+CCR7+ double positive cells out of CD45RA+ cells in CD8+ T cell population [3, 14]: 81.47%
% of CD62L+CCR7+ double positive cells out of CD45RA+ cells in live T cell population [4, 6]: 66.40%
% of CD62L+CCR7+ double positive cells out of CD45RA+ cells in live T cell population [4, 7]: 64.47%
% of CD62L+CCR7+ double positive cells out of CD45RA+ cells in live T cell population [4, 8]: 67.37%
% of CD62L+CCR7+ double positive cells out of CD45RA+ cells in live T cell population [4, 9]: 75.26%
% of CD62L+CCR7+ double positive cells out of CD45RA+ cells in live T cell population [4, 10]: 67.97%
% of CD62L+CCR7+ double positive cells out of CD45RA+ cells in live T cell population [4, 11]: 76.18%
% of CD62L+CCR7+ double positive cells out of CD45RA+ cells in live T cell population [4, 12]: 58.51%
% of CD62L+CCR7+ double positive cells out of CD45RA+ cells in live T cell population [4, 13]: 61.18%
% of CD62L+CCR7+ double positive cells out of CD45RA+ cells in live T cell population [4, 14]: 61.06%

CCn1cc(-c2cccc(C(F)(F)F)c2)c2sc(C(=N)NC3CCS(=O)(=O)CC3)cc2c1=O [IBRD9]
p2: pgp+ from Live cells ([1]; 500 nM): 21.12
p2: pgp+ from Live cells ([1]; 1 μM): 31.69
p5: double +ve pgp+ and CD62L-APC+ from Live cells ([2]; 500 nM): 4.51
p5: double +ve pgp+ and CD62L-APC+ from Live cells ([2]; 1 μM): 7.26
GATE P4 CD8(PerCP)+, CD45RA(FITC)+, CCR7 (PE)+, CD62L(APC) ([3]; 500 nM): 74.3%
GATE P4 CD8(PerCP)+, CD45RA(FITC)+, CCR7 (PE)+, CD62L(APC) ([3]; 1 μM): 79.18%
GATE P6 CD45RA(FITC)+, CCR7 (PE)+, CD62L(APC) ([4]; 500 nM): 61.53%
GATE P6 CD45RA(FITC)+, CCR7 (PE)+, CD62L(APC) ([4]; 1 μM): 67.77%
